Assay: xn = mol fraction of the nth substance listed
Conditions: 100 kPa, Liquid; for speed of sound: Frequency=2 MHz, Linear variable-path acoustic interferometer; for mass density: Vibrating tube method

Cc1ccc(O)cc1 [4-methylphenol] + CCO
Conditions | mass density, 303.15 K [kg/m3] | mass density, 308.15 K [kg/m3] | mass density, 313.15 K [kg/m3] | mass density, 318.15 K [kg/m3] | speed of sound, 303.15 K [m/s] | speed of sound, 313.15 K [m/s]
x2 = 0 | 1026.47 | 1022.56 | 1018.64 | 1014.68 | 1473 | 1440.2
x2 = 0.1392 | 1006.2 | 1002.27 | 998.32 | 994.31 | 1435.7 | 1402.3
x2 = 0.2624 | 985.93 | 981.96 | 977.97 | 973.9 | 1392.4 | 1359.7
x2 = 0.3722 | 965.59 | 961.62 | 957.61 | 953.46 | 1350.4 | 1318.2
x2 = 0.4707 | 945.23 | 941.23 | 937.2 | 932.96 | 1311.9 | 1280
x2 = 0.5595 | 924.86 | 920.83 | 916.75 | 912.45 | 1277.5 | 1245.8
x2 = 0.6401 | 904.44 | 900.38 | 896.25 | 891.89 | 1247 | 1215.1
x2 = 0.7134 | 883.97 | 879.86 | 875.69 | 871.3 | 1220.1 | 1188
x2 = 0.7805 | 863.47 | 859.3 | 855.09 | 850.66 | 1196.3 | 1164
x2 = 0.8421 | 842.93 | 838.68 | 834.45 | 829.99 | 1175.3 | 1142.8
x2 = 0.8989 | 822.33 | 818.01 | 813.74 | 809.25 | 1156.8 | 1124.1
x2 = 0.9514 | 801.71 | 797.31 | 793.01 | 788.43 | 1140.8 | 1107.9

Cc1ccccc1O [2-methylphenol] + CCO
Conditions | mass density, 303.15 K [kg/m3] | mass density, 308.15 K [kg/m3] | mass density, 313.15 K [kg/m3] | mass density, 318.15 K [kg/m3] | speed of sound, 303.15 K [m/s] | speed of sound, 313.15 K [m/s]
x2 = 0 | 1037.02 | 1032.58 | 1028.19 | 1023.82 | 1488.1 | 1453
x2 = 0.1387 | 1015.95 | 1011.54 | 1007.18 | 1002.83 | 1435.4 | 1401.2
x2 = 0.2617 | 994.82 | 990.39 | 986.02 | 981.62 | 1391.2 | 1355.4
x2 = 0.3713 | 973.68 | 969.21 | 964.81 | 960.38 | 1351.2 | 1314.6
x2 = 0.4698 | 952.47 | 947.97 | 943.57 | 939.1 | 1314.2 | 1277.9
x2 = 0.5586 | 931.22 | 926.73 | 922.33 | 917.85 | 1280.2 | 1245
x2 = 0.6392 | 909.96 | 905.45 | 901.08 | 896.59 | 1249.3 | 1215.3
x2 = 0.7127 | 888.59 | 884.08 | 879.74 | 875.23 | 1221.5 | 1188.6
x2 = 0.7799 | 867.19 | 862.71 | 858.37 | 853.88 | 1196.9 | 1164.8
x2 = 0.8417 | 845.72 | 841.26 | 836.92 | 832.43 | 1175.2 | 1143.6
x2 = 0.8986 | 824.22 | 819.77 | 815.43 | 810.91 | 1156.5 | 1124.8
x2 = 0.951 | 802.69 | 798.22 | 793.89 | 789.33 | 1140.6 | 1108.4

Cc1cccc(O)c1 [3-methylphenol] + CCO
Conditions | mass density, 303.15 K [kg/m3] | mass density, 308.15 K [kg/m3] | mass density, 313.15 K [kg/m3] | mass density, 318.15 K [kg/m3] | speed of sound, 303.15 K [m/s] | speed of sound, 313.15 K [m/s]
x2 = 0 | 1025.71 | 1021.7 | 1017.69 | 1013.65 | 1466.1 | 1436.1
x2 = 0.14 | 1005.48 | 1001.45 | 997.42 | 993.36 | 1426.7 | 1398.2
x2 = 0.2637 | 985.23 | 981.17 | 977.1 | 972.97 | 1384.7 | 1355
x2 = 0.3738 | 964.94 | 960.82 | 956.72 | 952.53 | 1344.9 | 1313.8
x2 = 0.4724 | 944.63 | 940.47 | 936.35 | 932.08 | 1308.5 | 1276.5
x2 = 0.5612 | 924.32 | 920.08 | 915.95 | 911.64 | 1275.8 | 1243.4
x2 = 0.6417 | 903.96 | 899.68 | 895.51 | 891.18 | 1246.6 | 1214
x2 = 0.7149 | 883.56 | 879.25 | 875.06 | 870.68 | 1220.5 | 1188
x2 = 0.7817 | 863.15 | 858.83 | 854.61 | 850.21 | 1197.2 | 1164.7
x2 = 0.8431 | 842.67 | 838.32 | 834.07 | 829.62 | 1176.3 | 1143.9
x2 = 0.8995 | 822.2 | 817.81 | 813.53 | 809.06 | 1157.8 | 1125.3
x2 = 0.9517 | 801.66 | 797.22 | 792.9 | 788.34 | 1141.4 | 1108.7

From the NIST ThermoML archive (doi:10.1016/j.jct.2018.12.039)
